According to patent US7473688B2, “Indolobenzazepine HCV NS5B inhibitors” (Bristol-Myers Squibb Company, priority 2005, dated 2009):

These compounds were tested against T1, HCV NS5B (Hepatitis C virus genotype 1b, UniProt Q9WMX2) (assay: HCV NS5B RdRp enzyme assay (preincubation protocol)). Details: Table 1, read-out: IC50*.
T1 construct: The protein was expressed with an 18 amino acid C-terminal truncation to enhance the solubility; made in house; host or cells: E. coli BL21 (DE3), pET21a
Assay type: biochemical
Description: HCV NS5B RdRp cloning, expression, and purification. The cDNA encoding the NS5B protein of HCV, genotype 1b, was cloned into the pET21a expression vector. The protein was expressed with an 18 amino acid C-terminal truncation to enhance the solubility. The E. coli competent cell line BL21 (DE3) was used for expression of the protein. Cultures were grown at 37° C. for ˜4 hours until the cultures reached an optical density of 2.0 at 600 nm. The cultures were cooled to 20° C. and induced with 1 mM IPTG. Fresh ampicillin was added to a final concentration of 50 μg/ml and the cells were grown overnight at 20° C.
Cell pellets (3L) were lysed for purification to yield 15-24 mgs of purified NS5B. The lysis buffer consisted of 20 mM Tris-HCl, pH 7.4, 500 mM NaCl, 0.5% triton X-100, 1 mM DTT, 1 mM EDTA, 20% glycerol, 0.5 mg/ml lysozyme, 10 mM MgCl2, 15 ug/ml deoxyribonuclease I, and Complete TM protease inhibitor tablets (Roche). After addition of the lysis buffer, frozen cell pellets were resuspended using a tissue homogenizer. To reduce the viscosity of the sample, aliquots of the lysate were sonicated on ice using a microtip attached to a Branson sonicator. The sonicated lysate was centrifuged at 100,000×g for 1 hr at 4° C. and filtered through a 0.2 μm filter unit (Corning).
The protein was purified using three sequential chromatography steps: Heparin sepharose CL-6B, polyU sepharose 4B, and Hitrap SP sepharose (Pharmacia). The chromatography buffers were identical to the lysis buffer but contained no lysozyme, deoxyribonuclease I, MgCl2 or protease inhibitor and the NaCl concentration of the buffer was adjusted according to the requirements for charging the protein onto the column. Each column was eluted with a NaCl gradient which varied in length from 5-50 column volumes depending on the column type. After the final chromatography step, the resulting purity of the enzyme is >90% based on SDS-PAGE analysis. The enzyme was aliquoted and stored at −80° C.
Standard HCV NS5B RdRp enzyme assay. HCV RdRp genotype 1b assays were run in a final volume of 60 μl in 96 well plates (Costar 3912). The assay buffer is composed of 20 mM Hepes, pH 7.5, 2.5 mM KCl, 2.5 mM MgCl2, 1 mM DTT, 1.6 U RNAse inhibitor (Promega N2515), 0.1 mg/ml BSA (Promega R3961), and 2% glycerol. All compounds were serially diluted (3-fold) in DMSO and diluted further in water such that the final concentration of DMSO in the assay was 2%. HCV RdRp genotype 1b enzyme was used at a final concentration of 28 nM. A polyA template was used at 6 nM, and a biotinylated oligo-dT12 primer was used at 180 nM final concentration. Template was obtained commercially (Amersham 27-4110). Biotinylated primer was prepared by Sigma Genosys. 3H-UTP was used at 0.6 μCi (0.29 μM total UTP). Reactions were initiated by the addition of enzyme, incubated at 30° C. for 60 min, and stopped by adding […] of 50 mM EDTA containing SPA beads (4 μg/μl, Amersham RPNQ 0007). Plates were read on a Packard Top Count NXT after >1 hr incubation at room temperature.
Modified HCV NS5B RdRp enzyme assay. A modified enzyme assay was performed essentially as described for the standard enzyme assay except for the following: The biotinylated oligo dT12 primer was precaptured on streptavidin-coated SPA beads by mixing primer and beads in assay buffer and incubating at room temperature for one hour. Unbound primer was removed after centrifugation. The primer-bound beads were resuspended in 20 mM Hepes buffer, pH 7.5 and used in the assay at final concentrations of […] primer and 0.67 μg/μl beads. Order of addition in the assay: Enzyme (14 nM) was added to diluted compound followed by the addition of a mixture of template (0.2 nM), 3H-UTP (0.6 μCi, 0.29 μM), and primer-bound beads, to initiate the reaction; concentrations given are final. Reactions were allowed to proceed for 4 hours at 30° C.
IC50 values for compounds were determined using seven different [I]. […]

T1 sequence (Q9WMX2 2420-2992): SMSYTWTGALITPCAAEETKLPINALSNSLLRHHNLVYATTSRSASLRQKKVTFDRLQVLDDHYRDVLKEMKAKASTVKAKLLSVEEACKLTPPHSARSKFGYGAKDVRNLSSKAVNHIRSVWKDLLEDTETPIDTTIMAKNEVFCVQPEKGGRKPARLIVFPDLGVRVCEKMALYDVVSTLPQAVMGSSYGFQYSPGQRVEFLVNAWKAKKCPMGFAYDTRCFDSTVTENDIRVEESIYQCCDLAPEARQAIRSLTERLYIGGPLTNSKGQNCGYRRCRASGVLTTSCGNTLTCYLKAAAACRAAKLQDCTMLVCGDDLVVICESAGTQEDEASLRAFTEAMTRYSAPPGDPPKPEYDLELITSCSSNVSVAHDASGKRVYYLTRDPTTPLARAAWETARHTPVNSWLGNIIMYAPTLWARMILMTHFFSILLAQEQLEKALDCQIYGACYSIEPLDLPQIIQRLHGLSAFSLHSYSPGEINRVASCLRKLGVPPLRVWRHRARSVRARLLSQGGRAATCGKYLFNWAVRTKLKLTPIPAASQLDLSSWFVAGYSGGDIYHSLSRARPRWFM

SMILES | IC50 [µM]
COC(=O)c1ccc2c(C3CCCCC3)c3n(c2c1)CC(C(=O)N1CCC(N2CC[C@H](F)C2)CC1)=Cc1ccccc1-3 | > 1

Same assay, conditions: Table 1a, read-out: IC50*

SMILES | IC50 [µM]
COC(=O)c1ccc2c(C3CCCCC3)c3n(c2c1)CC(NC(=O)OC(C)(C)C)Cc1ccccc1-3 (centres unmarked) | 0.01 to 1
C=CCNC(=O)N1CCN(C(=O)C2=Cc3ccccc3-c3c(C4CCCCC4)c4ccc(C(=O)NS(=O)(=O)N(C)C)cc4n3C2)CC1 | 0.01 to 1
CNC(=O)N1CCN(C(=O)C2=Cc3ccccc3-c3c(C4CCCCC4)c4ccc(C(=O)NS(=O)(=O)N(C)C)cc4n3C2)CC1 | 0.01 to 1
COC(=O)c1ccc2c(C3CCCCC3)c3n(c2c1)CC(NC(=O)C1CCOCC1)Cc1ccccc1-3 (centres unmarked) | > 1
O=C(NC[C@@H]1CCCO1)c1ccc2c(C3CCCCC3)c3n(c2c1)CC(C(=O)N1CCC(N2CCOCC2)CC1)=Cc1ccccc1-3 | 0.01 to 1
COc1ccc2c(c1)CC(C(=O)N(C)CC(=O)N(C)C)Cn1c-2c(C2CCCCC2)c2ccc(C(=O)NS(=O)(=O)N(C)C)cc21 (centres unmarked) | 0.01 to 1
CNC(=O)CNC(=O)C1=Cc2cc(OC)ccc2-c2c(C3CCCCC3)c3ccc(C(=O)O)cc3n2C1 | 0.01 to 1
CN(C)C(=O)CNC(=O)c1ccc2c(C3CCCCC3)c3n(c2c1)CC(C(=O)N1CCC(N2CCOCC2)CC1)=Cc1ccccc1-3 | 0.01 to 1
CNC(=O)CNC(=O)C1=Cc2cc(OC)ccc2-c2c(C3CCCCC3)c3ccc(C(=O)NS(=O)(=O)N(C)C)cc3n2C1 | 0.01 to 1
O=C(NCCc1nc2ccccc2[nH]1)c1ccc2c(C3CCCCC3)c3n(c2c1)CC(C(=O)N1CCC(N2CCOCC2)CC1)=Cc1ccccc1-3 | 0.01 to 1
COC(=O)c1ccc2c(C3CCCCC3)c3n(c2c1)CC(NC(=O)NC1CCN(C(=O)C(F)(F)F)CC1)Cc1ccccc1-3 (centres unmarked) | > 1
CN1CCN(C(=O)C2=Cc3ccccc3-c3c(C4CCCCC4)c4ccc(C(=O)NS(=O)(=O)N(C)C)cc4n3C2)CC1=O | 0.01 to 1
CN(C)C(=O)CN(C)C(=O)C1=Cc2ccccc2-c2c(C3CCCCC3)c3ccc(C(=O)O)cc3n2C1 | 0.01 to 1
COc1ccc2c(c1)C=C(C(=O)N(C)CC(=O)O)Cn1c-2c(C2CCCCC2)c2ccc(C(=O)O)cc21 | 0.01 to 1
COc1ccc2c(c1)C=C(C(=O)N(C)CC(=O)N1CCOCC1)Cn1c-2c(C2CCCCC2)c2ccc(C(=O)O)cc21 | 0.01 to 1
CN(C)C(=O)CN(C)C(=O)C1=Cc2ccccc2-c2c(C3CCCCC3)c3ccc(C(=O)NS(=O)(=O)N(C)C)cc3n2C1 | 0.01 to 1
COc1ccc2c(c1)C=C(C(=O)N1CCC[C@@H](OC(C)=O)C1)Cn1c-2c(C2CCCCC2)c2ccc(C(=O)NS(=O)(=O)N(C)C)cc21 | 0.01 to 1
CN(C)C(=O)C1CCN(C(=O)C2=Cc3ccccc3-c3c(C4CCCCC4)c4ccc(C(=O)NS(=O)(=O)N(C)C)cc4n3C2)CC1 | 0.01 to 1
COc1ccc2c(c1)C=C(C(=O)N(C)CC(=O)N1CCOCC1)Cn1c-2c(C2CCCCC2)c2ccc(C(=O)NS(=O)(=O)N(C)C)cc21 | 0.01 to 1
COc1ccc2c(c1)C=C(C(=O)N1C[C@@H](C)O[C@@H](C)C1)Cn1c-2c(C2CCCCC2)c2ccc(C(=O)NS(=O)(=O)N3CCN(C)CC3)cc21 | 0.01 to 1
COc1ccc2c(c1)C=C(C(=O)N1CCN(C)C(=O)C1)Cn1c-2c(C2CCCCC2)c2ccc(C(=O)NS(=O)(=O)N(C)C)cc21 | 0.01 to 1
CCN(CC)C(=O)CN(C)C(=O)C1=Cc2cc(OC)ccc2-c2c(C3CCCCC3)c3ccc(C(=O)NS(=O)(=O)N(C)C)cc3n2C1 | 0.01 to 1
COCCNC(=O)CN(C)C(=O)C1=Cc2cc(OC)ccc2-c2c(C3CCCCC3)c3ccc(C(=O)NS(=O)(=O)N(C)C)cc3n2C1 | 0.01 to 1
COC(=O)c1ccc2c(C3CCCCC3)c3n(c2c1)CC(NC(=O)C1CCCC(OC)C1)Cc1ccccc1-3 (centres unmarked) | > 1
COc1ccc2c(c1)CC(C(=O)N(C)CC1CCCO1)Cn1c-2c(C2CCCCC2)c2ccc(C(=O)NS(=O)(=O)N(C)C)cc21 (centres unmarked) | 0.01 to 1

SMILES | IC50 [µM]
COc1ccc2c(c1)CC(C(=O)N(C)CC1CCCO1)Cn1c-2c(C2CCCCC2)c2ccc(C(=O)O)cc21 (centres unmarked) | 0.01 to 1
COC(=O)c1ccc2c(C3CCCCC3)c3n(c2c1)CC(C(=O)NCC1CCCO1)Cc1cc(OC)ccc1-3 (centres unmarked) | > 1
COc1ccc2c(c1)C=C(C(=O)N1CCC[C@H](OC(C)=O)C1)Cn1c-2c(C2CCCCC2)c2ccc(C(=O)NS(=O)(=O)N(C)C)cc21 | 0.01 to 1
COc1ccc2c(c1)C=C(C(=O)N1CCC(C(=O)N(C)C)CC1)Cn1c-2c(C2CCCCC2)c2ccc(C(=O)NS(=O)(=O)N(C)C)cc21 | 0.01 to 1
COc1ccc2c(c1)CC(N(C)C(=O)N1C[C@@H](C)O[C@@H](C)C1)Cn1c-2c(C2CCCCC2)c2ccc(C(=O)O)cc21 (some centres unmarked) | 0.01 to 1
COCCNC(=O)CN(C)C(=O)C1Cc2cc(OC)ccc2-c2c(C3CCCCC3)c3ccc(C(=O)NS(=O)(=O)N(C)C)cc3n2C1 (centres unmarked) | 0.01 to 1
CCN(CC)C(=O)CN(C)C(=O)C1Cc2cc(OC)ccc2-c2c(C3CCCCC3)c3ccc(C(=O)NS(=O)(=O)N(C)C)cc3n2C1 (centres unmarked) | 0.01 to 1
COc1ccc2c(c1)CC(N(C)C(=O)N1C[C@@H](C)O[C@@H](C)C1)Cn1c-2c(C2CCCCC2)c2ccc(C(=O)NS(=O)(=O)N(C)C)cc21 (some centres unmarked) | 0.01 to 1
COC1CCCC(C(=O)N(C)C2Cc3ccccc3-c3c(C4CCCCC4)c4ccc(C(=O)NS(=O)(=O)N(C)C)cc4n3C2)C1 (centres unmarked) | 0.01 to 1
COC1CCCC(C(=O)N(C)C2Cc3ccccc3-c3c(C4CCCCC4)c4ccc(C(=O)O)cc4n3C2)C1 (centres unmarked) | 0.01 to 1
COC(=O)c1ccc2c(C3CCCCC3)c3n(c2c1)CC(NC(=O)C1CCOCC1)Cc1cc(OC)ccc1-3 (centres unmarked) | 0.01 to 1
COc1ccc2c(c1)C=C(C(=O)N1CCN(C(=O)CN)CC1)Cn1c-2c(C2CCCCC2)c2ccc(C(=O)NS(=O)(=O)N(C)C)cc21 | < 0.02
COc1ccc2c(c1)CC(C(=O)N1CCN(C(=O)N(C)C)CC1)Cn1c-2c(C2CCCCC2)c2ccc(C(=O)NS(=O)(=O)N(C)C)cc21 (centres unmarked) | 0.01 to 1
COC(=O)c1ccc2c(C3CCCCC3)c3n(c2c1)CC(C(=O)N1C[C@@H](C)N(C)[C@@H](C)C1)=Cc1cc(F)ccc1-3 | 0.01 to 1
COc1ccc2c(c1)CC(N(C)C(=O)C1CCOCC1)Cn1c-2c(C2CCCCC2)c2ccc(C(=O)NS(=O)(=O)N(C)C)cc21 (centres unmarked) | 0.01 to 1
COc1ccc2c(c1)CC(N(C)C(=O)C1CCOCC1)Cn1c-2c(C2CCCCC2)c2ccc(C(=O)O)cc21 (centres unmarked) | < 0.02
CC(=O)NC1Cc2ccccc2-c2c(C3CCCCC3)c3ccc(C(=O)NS(=O)(=O)N(C)C)cc3n2C1 (centres unmarked) | 0.01 to 1
COc1ccc2c(c1)C=C(C(=O)N1CCC(C(=O)N(C)C)CC1)Cn1c-2c(C2CCCCC2)c2ccc(C(=O)NS(=O)(=O)N3CCN(C)CC3)cc21 | 0.01 to 1
C[C@@H]1CN(C(=O)C2=Cc3ccccc3-c3c(C4CCCCC4)c4ccc(C(=O)NS(=O)(=O)OCC(C)(C)C)cc4n3C2)C[C@H](C)O1 | 0.01 to 1
C[C@@H]1CN(C(=O)C2=Cc3cc(F)ccc3-c3c(C4CCCCC4)c4ccc(C(=O)O)cc4n3C2)C[C@H](C)N1C | 0.01 to 1
COc1ccc2c(c1)C=C(C(=O)N1C[C@@H](C)N(C)[C@@H](C)C1)Cn1c-2c(C2CCCCC2)c2ccc(C(=O)NS(=O)(=O)N(C)C)cc21 | 0.01 to 1
COc1ccc2c(c1)C=C(C(=O)N1CCN(CC(F)(F)F)CC1)Cn1c-2c(C2CCCCC2)c2ccc(C(=O)NS(=O)(=O)N3CCOCC3)cc21 | 0.01 to 1
COC(=O)c1ccc2c(C3CCCCC3)c3n(c2c1)CC(C(=O)NCc1ncco1)Cc1cc(OC)ccc1-3 (centres unmarked) | 0.01 to 1
O=C(NS(=O)(=O)N1CCOCC1)c1ccc2c(C3CCCCC3)c3n(c2c1)CC(C(=O)N1CCN(CC(F)(F)F)CC1)=Cc1ccccc1-3 | 0.01 to 1
